Patent US20230148599A1, “FUNGICIDAL MIXTURES CONTAINING PYRAZOLE DERIVATIVES” (FMC Corporation, priority 2020, published 2023)

How the values were obtained:
Format in all cases: in vivo
Settings in all cases: 50 ppm, 100 = 100% disease control, 0 = no control
Septoria tritici = experiment: Test A: wheat leaf blotch, preventive spray on wheat seedlings
Summary of the method: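 Preventive test: one day after spraying seedlings to run-off (concentrations in ppm; acetone/water, 250 ppm PEG400), Septoria tritici spores applied. Scored after 48 h humid incubation at 24 °C plus 17 days at 20 °C, as percent disease control versus untreated controls (100 = full control).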

[1] = tested on: Puccinia recondita f. sp. tritici; experiment: Test B: wheat leaf rust, preventive spray on wheat seedlings
Summary of the method: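 Preventive test: compound in acetone/water 50/50 with 250 ppm PEG400 was sprayed onto wheat seedlings one day before inoculation with leaf rust spores. After 24 h in saturated air and 7 days in a growth chamber, both at 20 °C, disease control was scored from 0 to 100 against controls.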

[2] = tested on: Blumeria graminis f. sp. tritici; experiment: Test C: wheat powdery mildew, preventive spray on wheat seedlings
Summary of the method: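 Preventive test: inoculation with spore dust came one day after spraying seedlings to run-off with ppm suspensions in acetone/water (50/50) plus 250 ppm PEG400 surfactant. Visual ratings after 8 days' incubation at 20° C give percent disease control relative to controls.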

Phakopsora pachyrhizi = experiment: Test D: Asian soybean rust, preventive spray on soybean seedlings
Summary of the method: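 Compounds in acetone/water (50/50) with 250 ppm PEG400, dosed in ppm, sprayed to run-off on soybean seedlings; inoculated with P. pachyrhizi spores next day. Held 24 h at 22 °C in saturated air, then 8 days at 22 °C; visual rating of disease control, 0–100, relative to untreated controls.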

Botrytis cinerea = experiment: Test E: tomato Botrytis, preventive spray on tomato seedlings
Summary of the method: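 Preventive test: seedlings sprayed to run-off with compound in acetone/water (50/50) plus 250 ppm PEG400, inoculated one day later with B. cinerea spores. Held 48 h saturated at 20° C, then 3 days at 24° C; disease control scored visually from 0 to 100 versus controls.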

Alternaria solani = experiment: Test F: tomato early blight, preventive spray on tomato seedlings
Summary of the method: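 Preventive test: one day after the compound spray, seedlings were inoculated with A. solani, incubated saturated at 27 °C for 48 h, then kept at 20 °C for 3 days. Test suspensions contained acetone/water 50/50 with 250 ppm PEG400 surfactant. Visual ratings run from 0 (no control) to 100 (full control).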

Structure (SMILES) | Test A disease control rating (Septoria tritici) [%] | Test B disease control rating [1] [%] | Test C disease control rating [2] [%] | Test D disease control rating (Phakopsora pachyrhizi) [%] | Test E disease control rating (Botrytis cinerea) [%] | Test F disease control rating (Alternaria solani) [%]
Cc1nn(C)c(Nc2ccccc2[N+](=O)[O-])c1-c1ccc(C#N)cc1F [compound 134] | 100 | 23 | 71 | 0 | 70 | 0
Cc1nn(C)c(Nc2ccccc2[N+](=O)[O-])c1-c1c(F)cccc1F [compound 135] | 100 | 68 | 93 | 0 | 99 | 0
Cc1nn(C)c(Nc2ccccc2[N+](=O)[O-])c1-c1c(F)cccc1Cl [compound 136] | 100 | 80 | 88 | 0 | 99 | 0
CCc1nn(C)c(Nc2c(F)cc(C)cc2[N+](=O)[O-])c1-c1ccc(F)cc1Cl [compound 137] | 100 | 100 | 100 | 91 | 99 | 99
COc1cc(F)c(Nc2c(-c3ccc(Cl)cc3Cl)c(C)nn2C)c([N+](=O)[O-])c1 [compound 138] | 100 | 100 | 93 | 67 | 99 | 100
Cc1nn(C)c(Nc2ccccc2[N+](=O)[O-])c1-c1ccc(F)cc1Br [compound 139] | 98 | 86 | 76 | 0 | 100 | 33
COc1ccc(-c2c(C)nn(C)c2Nc2ccccc2[N+](=O)[O-])c(Cl)c1 [compound 140] | 99 | 86 | 31 | 0 | 100 | 93
COc1cc(Cl)c(Nc2c(-c3ccc(F)cc3F)c(C)nn2C)c([N+](=O)[O-])c1 [compound 141] | 99 | 100 | 99 | 0 | 99 | 83
COc1ccc(Nc2c(-c3ccc(Cl)cc3Cl)c(C)nn2C)c([N+](=O)[O-])c1 [compound 142] | 100 | 91 | 39 | 25 | 99 | 80
Cc1cc(F)c(Nc2c(-c3ccc(Cl)cc3Cl)c(C)nn2C)c([N+](=O)[O-])c1 [compound 143] | 99 | 100 | 96 | 87 | 99 | 100
Cc1cccc([N+](=O)[O-])c1Nc1c(-c2ccc(Cl)cc2Cl)c(C)nn1C [compound 144] | 100 | 68 | 35 | 69 | 0 | 0
Cc1cc(Cl)c(Nc2c(-c3ccc(Cl)cc3Cl)c(C)nn2C)c([N+](=O)[O-])c1 [compound 145] | 98 | 92 | 52 | 0 | 85 | 24
Cc1nn(C)c(Nc2c(Cl)cc(Cl)cc2[N+](=O)[O-])c1-c1ccc(Cl)cc1Cl [compound 146] | 97 | 98 | 0 | 0 | 0 | 40
COc1cc(F)c(-c2c(C)nn(C)c2Nc2ccccc2[N+](=O)[O-])c(F)c1 [compound 147] | 96 | 86 | 97 | 0 | 100 | 99
Cc1nn(C)c(Nc2ccccc2[N+](=O)[O-])c1-c1c(F)cc(F)cc1Cl [compound 148] | 100 | 99 | 98 | 13 | 99 | 100
Cc1nn(C)c(Nc2ccccc2[N+](=O)[O-])c1-c1c(F)cc(F)cc1F [compound 149] | 100 | 80 | 97 | 0 | 99 | 96
COc1ccc(Nc2c(-c3c(F)cc(C#N)cc3F)c(C)nn2C)c([N+](=O)[O-])c1 [compound 150] | 100 | 100 | 98 | 13 | 100 | 99
Cc1nn(C)c(Nc2c(F)cccc2[N+](=O)[O-])c1-c1c(F)cc(Cl)cc1F [compound 151] | 100 | 100 | 99 | 0 | 99 | 99
Cc1nn(C)c(Nc2c(Cl)cccc2[N+](=O)[O-])c1-c1c(F)cc(F)cc1Cl [compound 152] | 99 | 100 | 98 | 91 | 99 | 92
Cc1cccc([N+](=O)[O-])c1Nc1c(-c2c(F)cc(F)cc2Cl)c(C)nn1C [compound 153] | 99 | 100 | 99 | 73 | 99 | 72
Cc1nn(C)c(Nc2ccccc2[N+](=O)[O-])c1-c1c(F)cc(F)cc1Br [compound 154] | 99 | 80 | 98 | 0 | 99 | 51
